# Measured values published in patent US10213415B2, “Compounds as opioid receptor modulators” (JANSSEN PHARMACEUTICA NV, priority 2004, dated 2019).
# Like-named read-outs stand apart in the source and are kept apart here.
# Assays:
# human mu opioid receptor = target: T1, human mu opioid receptor (Homo sapiens, UniProt P35372); experiment: Human Mu Opioid Receptor Binding Assay (CHO membranes, 3H-Damgo); details: read-out: hKi μ
# T1 construct: purchased Perkin Elmer RBHOMM400UA; host or cells: Chinese Hamster Ovary cells (recombinant expression)
# Outline: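 Membranes from CHO cells expressing human mu opioid receptor, 300 μg/mL, in 50 mM Tris pH 7.5, 5 mM MgCl2. Incubated with compound and ³H-Damgo (3.6 nM before mixing) for 2 h at room temperature, filtered, counted by scintillation. Nonspecific binding with 1 μM unlabelled Damgo.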
# [1] = target: T2, mu opioid receptor (CHO-hMOR cell membranes) (Homo sapiens, UniProt P35372); experiment: Mu Opioid Receptor Functional Assay: [35S]GTPγS Binding in CHO-hMOR Cell Membranes, Versions 1 and 2; assay type: biochemical; details: for MOR GTP binding assay_v1 (% I): version 1, % inhibition of agonist-stimulated GTPγS binding; for MOR GTP assay_v1 % of Basal: version 1, basal binding = 100%; for MOR GTP binding assay_v2 (% I): version 2, % inhibition of agonist-stimulated GTPγS binding; for EC50: version 2, read-out: MOR GTP binding assay v2 EC50
# T2 construct: purchased Receptor Biology, Inc. (Baltimore, Md.); host or cells: CHO cells (recombinant expression)
# Outline: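 CHO-hMOR membranes (10 μg/ml) on WGA SPA beads, preincubated 45 min at 25 °C, then incubated with 0.5 nM [35S]GTPγS in HEPES pH 7.6, 5 mM MgCl2, 100 mM NaCl, 1 mM DTT, 1 mM EDTA. Non-specific binding with 10 μM unlabeled GTPγS; agonist EC50 from concentration-response, antagonism as inhibition of 1 μM SNC80-stimulated binding.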
# [2] = target: T3, human delta subtype 2 opioid receptor (Homo sapiens, UniProt P41143); experiment: Human Delta Opioid Receptor Binding Assay (CHO membranes, 3H-Naltrindole); details: read-out: hKi δ
# T3 construct: purchased Perkin Elmer RBHODM400UA; host or cells: Chinese Hamster Ovary cells (recombinant expression)
# Outline: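 Filtration binding on CHO-cell membranes expressing the human receptor, in 50 mM Tris pH 7.5 with 5 mM MgCl2, 30 min at room temperature; 3H-naltrindole diluted to 6 nM before mixing 1:1 with compound. Nonspecific binding defined with 1 μM unlabelled naltrindole; inhibition relative to no-inhibitor wells.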
# [3] = target: T4, delta opioid receptor (CHO-hδ cell membranes) (Homo sapiens, UniProt P41143); experiment: Delta Opioid Receptor Functional Assay: [35S]GTPγS Binding in CHO-hδ Cell Membranes, Version 1; assay type: biochemical; details: read-out: DOR GTP-binding Assay_v1 EC50
# T4 construct: purchased Receptor Biology, Inc. (Baltimore, Md.); host or cells: CHO cells (recombinant expression)
# Protocol: CHO-hδ cell membranes were purchased from Receptor Biology, Inc. (Baltimore, Md.). 10 mg/ml of membrane protein suspended in 10 mM TRIS-HC pH 7.2, 2 mM EDTA, 10% sucrose.
# (§1) Membranes were maintained at 4-8° C. A portion (1 ml) of membranes was added into 15 mL cold binding assay buffer. The assay buffer contained 50 mM HEPES, pH 7.6, 5 mM MgCl2, 100 mM NaCl, 1 mM DTT and 1 mM EDTA. The membrane suspension was homogenized with a Polytron for 2 times and centrifuged at 3000 rpm for 10 min. The supernent was then centrifuged at 18,000 rpm for 20 min. The pellet was saved in a tube and 10 ml assay buffer was added into the tube. The pellet and buffer were mixed with a Polytron.
# The pellet membranes (20 μg/ml) were preincubated with SPA (10 mg/ml) at 25° C. for 45 min in the assay buffer. The SPA (5 mg/ml) coupled with membranes (10 μg/ml) was then incubated with 0.5 nM [^35S]GTPγS in the same HEPES buffer containing 50 μM GDP in total volume of 200 μl. Increasing concentrations of receptor agonists were used to stimulate [^35S]GTPγS binding. The basal binding was tested in the absent agonists and no specific binding was tested in the present 10 μM unlabeled GTPγS. The data were analyzed on a Top counter.
# Data The % of Basal=(stimulate−non specific)*100/(basal−non specific). EC50 values were calculated using a Prism program.
# [4] = tested on: novel environment-stressed mice; experiment: In Vivo Assay-Stress-Induced Fecal Output (Fecal Output for 1 hr); design: species or system mouse; details: 1 hr; for Fecal Output (# pellets) cpd: novel environment-stressed mice; for response vs control in vivo at 10 mg/kg / response vs control in vivo at 30 mg/kg: Mus musculus, po, 1 h
# Outline: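 Adult male Crl:CD-1(ICR) mice (˜30-35 g; at least 10 per dose group) were split into acclimated non-stressed controls, held individually for 16-18 hr in wire-mesh-bottom cages, and non-acclimated stressed groups. Mice were dosed intragastrically with vehicle or test compound in 0.5% methylcellulose, housed individually in novel cages over absorbent cardboard, and fecal pellets per mouse were counted hourly.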
# [5] = target: T5, delta opioid receptor (NG108-15 cell membranes) (Mus musculus, UniProt P32300); experiment: Delta Opioid Receptor Functional Assay: [35S]GTPγS Binding in NG108-15 Cell Membranes, Version 2; assay type: biochemical; details: NG108-15 cell membranes, version 2; for EC50: [35S]GTPγS, read-out: DOR GTP-binding Assay_v2_ EC50; for DOR GTP-binding Assay v2 (% I): % inhibition of agonist-stimulated GTPγS binding
# T5 construct: NG108-15 cell membranes were purchased from Applied Cell Sciences (Rockville, Md.); host or cells: NG108-15 cells (membranes purchased)
# Protocol: NG108-15 cell membranes were purchased from Applied Cell Sciences (Rockville, Md.). 8 mg/ml of membrane protein suspended in 10 mM TRIS-HC pH 7.2, 2 mM EDTA, 10% sucrose.
# as §1, with “10 ml” for “15 mL”, “Tris,” for “HEPES,”, “EGTA.” for “EDTA.”
# The pellet membranes (75 μg/ml) were preincubated with SPA (10 mg/ml) at 25° C. for 45 min in the assay buffer. The SPA (5 mg/ml) coupled with membranes (37.5 μg/ml) was then incubated with 0.1 nM [^35S] GTPγS in the same Tris buffer containing 100 μM GDP in total volume of 200 μl. Increasing concentrations of receptor agonists were used to stimulate [^35S] GTPγS binding. The basal binding was tested in the absent agonists and no specific binding was tested in the present 10 μM unlabeled GTPγS. The data were analyzed on a Top counter.
# [formula] % Inhibition=(% stimulation by 1 μM SNC80−% stimulation by 1 μM SNC80 in presence of test compound)×100/(% Stimulation by 1 μM SNC80−100) % of Basal=(stimulate−non specific)*100/(basal−non specific). EC50 values were calculated using GraphPad Prism.
# mu opioid receptor = target: T6, mu opioid receptor (Rattus norvegicus, UniProt P33535); experiment: Rat Brain Mu Opioid Receptor Binding Assay (and Version 2a, [3H]DAMGO); details: rat forebrain membranes, margin of error 10-20%, read-out: r Ki μ
# T6 construct: from tissue; host or cells: forebrain of male Wistar rats
# Outline: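 Rat forebrain membranes from male Wistar rats in 50 mM Tris-HCl pH 7.4 with 5 mM MgCl2 incubated with 0.8 nM [3H]DAMGO for 2.5 h at 25° C., then filtered and counted. Data given as % inhibition of specific binding at single concentrations or as Ki from concentration series.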
# delta opioid receptor = target: T7, delta opioid receptor (Rattus norvegicus, UniProt P33533); experiment: Rat Brain Delta Opioid Receptor Binding Assay ([3H]DPDPE); details: rat forebrain membranes, margin of error 10-20%, read-out: r Ki δ
# T7 construct: from tissue; host or cells: forebrain of male Wistar rats
# Outline: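 Rat (male Wistar) forebrain membranes in 50 mM Tris-HCl pH 7.4 with 5 mM MgCl2, incubated with ~4 nM [3H]DPDPE for 2.5 h at 25 °C. Bound ligand collected by filtration and scintillation counting. Single-concentration data given as % inhibition of specific binding; concentration series fitted to Ki.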
# T2 sequence (P35372 whole entry): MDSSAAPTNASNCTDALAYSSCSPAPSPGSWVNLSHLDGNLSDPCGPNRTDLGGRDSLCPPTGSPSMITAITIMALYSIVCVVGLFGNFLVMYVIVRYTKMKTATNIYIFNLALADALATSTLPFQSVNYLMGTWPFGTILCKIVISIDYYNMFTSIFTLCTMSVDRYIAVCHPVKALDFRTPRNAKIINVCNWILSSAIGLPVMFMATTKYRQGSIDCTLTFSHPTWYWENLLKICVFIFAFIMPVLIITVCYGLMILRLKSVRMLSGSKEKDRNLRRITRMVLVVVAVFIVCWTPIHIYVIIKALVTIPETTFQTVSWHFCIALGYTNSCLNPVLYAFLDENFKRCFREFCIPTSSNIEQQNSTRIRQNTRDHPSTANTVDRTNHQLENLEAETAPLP
# T6 sequence (P33535 whole entry): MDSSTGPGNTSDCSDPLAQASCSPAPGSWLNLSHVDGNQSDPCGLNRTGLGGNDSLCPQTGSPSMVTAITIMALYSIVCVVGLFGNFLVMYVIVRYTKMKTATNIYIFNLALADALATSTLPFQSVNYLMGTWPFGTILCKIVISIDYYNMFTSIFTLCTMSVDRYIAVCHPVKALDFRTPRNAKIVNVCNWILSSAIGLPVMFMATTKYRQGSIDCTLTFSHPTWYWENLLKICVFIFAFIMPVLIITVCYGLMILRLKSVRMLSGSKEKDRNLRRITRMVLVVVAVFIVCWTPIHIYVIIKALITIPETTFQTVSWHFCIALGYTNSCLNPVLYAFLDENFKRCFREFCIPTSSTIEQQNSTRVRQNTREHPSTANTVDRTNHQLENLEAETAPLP
# T3 sequence (P41143 whole entry): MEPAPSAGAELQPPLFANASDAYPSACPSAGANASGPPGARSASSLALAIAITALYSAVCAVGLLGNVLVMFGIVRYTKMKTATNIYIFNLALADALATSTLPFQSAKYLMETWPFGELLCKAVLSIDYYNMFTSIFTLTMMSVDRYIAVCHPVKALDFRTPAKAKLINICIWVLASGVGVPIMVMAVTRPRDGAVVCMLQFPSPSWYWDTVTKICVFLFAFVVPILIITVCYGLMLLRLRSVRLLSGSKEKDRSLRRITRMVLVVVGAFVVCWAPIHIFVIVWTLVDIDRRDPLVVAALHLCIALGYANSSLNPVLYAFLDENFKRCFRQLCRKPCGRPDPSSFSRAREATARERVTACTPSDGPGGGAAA
# T4 sequence (P41143 whole entry): as above
# T5 sequence (P32300 whole entry): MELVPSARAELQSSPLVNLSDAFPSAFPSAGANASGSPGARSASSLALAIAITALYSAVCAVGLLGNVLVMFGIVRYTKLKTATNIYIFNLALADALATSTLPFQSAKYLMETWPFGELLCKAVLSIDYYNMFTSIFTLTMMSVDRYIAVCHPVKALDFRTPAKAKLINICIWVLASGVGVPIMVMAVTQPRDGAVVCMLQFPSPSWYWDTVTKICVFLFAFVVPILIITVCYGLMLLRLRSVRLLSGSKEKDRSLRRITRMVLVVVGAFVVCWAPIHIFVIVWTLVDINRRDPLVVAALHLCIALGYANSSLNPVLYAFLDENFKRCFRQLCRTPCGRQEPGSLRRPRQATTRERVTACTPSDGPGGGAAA
# T7 sequence (P33533 whole entry): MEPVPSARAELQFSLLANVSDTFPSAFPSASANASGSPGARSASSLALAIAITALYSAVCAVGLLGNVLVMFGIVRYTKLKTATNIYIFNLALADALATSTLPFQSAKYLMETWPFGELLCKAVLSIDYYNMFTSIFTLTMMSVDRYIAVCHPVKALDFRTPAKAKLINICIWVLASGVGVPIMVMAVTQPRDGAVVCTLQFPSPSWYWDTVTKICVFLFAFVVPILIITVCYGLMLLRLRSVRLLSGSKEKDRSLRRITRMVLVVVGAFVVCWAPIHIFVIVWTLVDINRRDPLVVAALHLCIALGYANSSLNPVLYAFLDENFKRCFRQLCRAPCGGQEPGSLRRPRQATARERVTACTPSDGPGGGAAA
# T1 sequence (P35372 whole entry): as the sequence (P35372 whole entry) above
SMILES,MOR GTP binding assay_v1 (% I) [1] [%],MOR GTP assay_v1 % of Basal [1] [%],Ki [2] [nM],EC50 [3] [nM],EC50 [5] [nM],Ki (mu opioid receptor) [nM],Ki (delta opioid receptor) [nM],other results
Cc1cc(O)cc(C)c1C[C@H](N)C(=O)N(Cc1nc(-c2ccccc2F)c(C)[nH]1)C(C)C [Cpd 117],3.31,816.16,118,37,,,,Ki (human mu opioid receptor): 0.24 nM
Cc1cc(O)cc(C)c1C[C@H](N)C(=O)N(Cc1nc(-c2ccsc2)c(C)[nH]1)C(C)C [Cpd 146],2.79,740.77,71,27,,,,
Cc1cc(O)cc(C)c1C[C@H](N)C(=O)N(Cc1nc(-c2ccc(Cl)cc2)c(C)[nH]1)C(C)C [Cpd 147],1.00,779.35,241,51,,,,
Cc1cc(O)cc(C)c1C[C@H](N)C(=O)N(Cc1nc(-c2ccc(C(F)(F)F)cc2)c(C)[nH]1)C(C)C [Cpd 149],1.00,753.53,408,44,,,,
Cc1cc(O)cc(C)c1C[C@H](N)C(=O)N(Cc1nc(-c2ccc3ccccc3c2)c(C)[nH]1)C(C)C [Cpd 150],53.35,476.63,992,49,,,,
Cc1cc(O)cc(C)c1C[C@H](N)C(=O)N(Cc1nc(-c2ccccc2C(F)(F)F)c(C)[nH]1)C(C)C [Cpd 151],24.19,606.38,1300,350,,,,
Cc1cc(O)cc(C)c1C[C@H](N)C(=O)N(Cc1nc(-c2ccccc2Cl)c(C)[nH]1)C(C)C [Cpd 155],14.32,655.93,345,150,,,,
Cc1cc(O)cc(C)c1C[C@H](N)C(=O)N(C)[C@@H](CC(C)C)c1nc(-c2ccccc2)c[nH]1 [Cpd 174],42.00,864.00,,20,,,,
Cc1cc(C(N)=O)cc(C)c1C[C@H](N)C(=O)N(C)[C@@H](C)c1nc(-c2ccccc2)c[nH]1 [Cpd 196],1.00,620.00,,24,,,,"Fecal Output (# pellets) cpd ([4]; 10 mg/kg oral): 9.2 pellets; Fecal Output (# pellets) cpd ([4]; 30 mg/kg oral): 4.3 pellets; response vs control in vivo at 10 mg/kg ([4]; 10 mg/kg oral, relative to acclimated control, read-out: Fecal Output cpd % control): 249%; response vs control in vivo at 10 mg/kg ([4]; 10 mg/kg oral, relative to novel environment stress (NES) vehicle group, read-out: Fecal Output cpd % NES): 65.7%; response vs control in vivo at 30 mg/kg ([4]; 30 mg/kg oral, relative to acclimated control, read-out: Fecal Output cpd % control): 391%; response vs control in vivo at 30 mg/kg ([4]; 30 mg/kg oral, relative to novel environment stress (NES) vehicle group, read-out: Fecal Output cpd % NES): 45.3%"
C[C@@H](c1nc(-c2ccccc2)c[nH]1)N(Cc1cccc(-c2nnn[nH]2)c1)C(=O)[C@@H](N)Cc1ccc(C(N)=O)cc1 [Cpd 267],,,,,6,1.53,0.46,DOR GTP-binding Assay v2 (% I) [5]: 31.76%; Ki (human mu opioid receptor): 6.88 nM
COc1ccc(CN(C(=O)[C@@H](N)Cc2c(C)cc(C(N)=O)cc2C)[C@@H](C)c2nc(-c3ccccc3)c[nH]2)cc1C(N)=O [Cpd 295],,,,,2.2,0.18,3.95,DOR GTP-binding Assay v2 (% I) [5]: 71.66%; MOR GTP binding assay_v2 (% I) [1]: 8.21%; EC50 [1]: 1.4 nM
COc1ccc(CN(C(=O)[C@@H](N)Cc2c(C)cc(C(N)=O)cc2C)[C@@H](C)c2nc(-c3ccccc3)c[nH]2)cc1C(=O)N1CCOCC1 [Cpd 296],,,,,7.9,0.49,2.2,DOR GTP-binding Assay v2 (% I) [5]: 69.41%; MOR GTP binding assay_v2 (% I) [1]: 9.35%; EC50 [1]: 2.2 nM
COc1ccc(CN(C(=O)[C@@H](N)Cc2c(C)cc(C(N)=O)cc2C)[C@@H](C)c2nc(-c3ccccc3)c[nH]2)cc1C(=O)NCCO [Cpd 299],,,,,2.3,0.44,1.16,MOR GTP binding assay_v2 (% I) [1]: 12.11%; EC50 [1]: 1 nM
COc1ccc(CN(C(=O)[C@@H](N)Cc2c(C)cc(C(N)=O)cc2C)[C@@H](C)c2nc(-c3ccccc3)c[nH]2)cc1C(=O)NC1CC1 [Cpd 300],,,,,32,0.09,0.29,MOR GTP binding assay_v2 (% I) [1]: 15.40%; EC50 [1]: 2.6 nM
